These are literature values, as cited in patent US20250025420A1, “TERNARY CO-AMORPHOUS FORMS OF DRUGS, PROTEINS, AND WATER-SOLUBLE POLYMERS” (Zerion Pharma APS, priority 2021, published 2025).

The conditions of this data set: stated in Materials.

The structures appear in SMILES notation.

Take `C=C(C)[C@@H]1CCC(C)=C[C@H]1c1c(O)cc(CCCCC)cc1O` [Cannabidiol]: the pKa is recorded as 9.7.
As to `C=CC(=O)N1CCC[C@@H](n2nc(-c3ccc(Oc4ccccc4)cc3)c3c(N)ncnc32)C1` [Ibrutinib], the pKa is 3.74.

As a reminder, the pKa is the negative logarithm of the acid dissociation constant.
